From patent publication US11299485B2, “Thiophene derivative and use thereof” (FUJIMOTO CO., LTD., priority 2018, dated 2022)

Columns and labels:
Type in all cases: cell-based
Kasumi-7 cells = assay: Human acute lymphoblastic leukemia cell line Kasumi-7 proliferation suppression test; conditions: 72 h, compound 10 μM, 3 days, WST-8, read-out: cell survival rate (% of control) Kasumi-7
Summary of the method: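 Cells seeded at 1.3×10^5 cells/mL in RPMI1640 with 20% FCS, cultured overnight at 37°C, 5% CO2, then treated with compound at 10 μM final; DMSO vehicle control. Proliferation read by WST-8 after 3 days' culture.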

Daudi cells = assay: Human Burkitt lymphoma cell line Daudi proliferation suppression test; conditions: 72 h, compound 10 μM, 3 days, WST-8, read-out: cell survival rate (% of control) Daudi
Summary of the method: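 Daudi cells plated at 1.3×10^5 cells/mL and cultured overnight at 37° C., 5% CO2, then given test compound at final 10 μM (DMSO vehicle control). After 3 days' culture, proliferation was read by WST-8.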

TNF-α production = assay: Human TNF-α production suppression test (LPS-stimulated peripheral blood mononuclear cells, ELISA); conditions: PBMC, compound 10 μg/mL, 24 hr, control well = 100, read-out: TNF-α production suppressive rate (%)
Experimental: Example 50: Human TNF-α Production Suppression Test
Peripheral blood of a healthy adult was collected in a vacuum blood collection tube (Terumo, containing EDTA/2Na), and then diluted two-fold with an equal volume of OTSUKA NORMAL SALINE (Otsuka Pharmaceutical Co., Ltd.). The diluted blood was mixed with Lymphoprep (AXIS-SHIELD) in half the volume of the diluted blood, dispensed into a 15 mL conical tube, and centrifuged at room temperature for 20 min (2,100 rpm). The mononuclear cells accumulated at the interface between Lymphoprep and plasma was transferred to a 50 mL conical tube, diluted with OTSUKA NORMAL SALINE, and the mononuclear cells suspension was centrifuged at room temperature for 10 min (1,150 rpm) and then the supernatant was removed. The mononuclear cells fraction obtained as a precipitate was suspended in an appropriate amount of 10% fetal calf serum (Thermo Fisher Scientific)-containing RPMI1640 medium (Thermo Fisher Scientific, hereinafter abbreviated as medium A), and diluted as appropriate with 0.4% trypan blue solution (Sigma-Aldrich Co. LLC.). The number of viable cells was counted with a hemocytometer (ERMA INC.). It was diluted with medium A such that the value obtained was 5×10^5 cells/mL. On the other hand, 75 μL of medium A, 5 μL of 0.4 mg/mL test compound solution (DMSO solution 10-fold diluted with medium A), and 20 μL of 10 μg/mL lipopolysaccharide (Sigma-Aldrich Co. LLC.) solution (diluted with medium A) were each added in advance to the same well of a Falcon 96-well flat bottom plate (Corning Incorporated), and the above-mentioned cell suspension was dispensed at 0.1 mL/well. 5 μL of DMSO diluted 10-fold with medium A was added to the control well instead of the compound solution. After culturing at 37° C. in a 5% CO2 stream for 24 hr, the culture solution was centrifuged at 4° C., 1,000 rpm for 3 min and the supernatant was recovered. The content of TNF-α in the supernatant was measured using an ELISA kit (Peprotech) according to a conventional method. The amount of TNF-α produced in the well containing the test compound was determined with the amount of TNF-α produced in the control well as 100, and the suppression rate was calculated for each test.

Row | Structure (SMILES) | viability at 10 µM (Kasumi-7 cells) | viability at 10 µM (Daudi cells) | inhibition at 10 µg/mL (TNF-α production)
1 | C[C@@H]1CN(Cc2ccc(COc3cscc3-c3cn(C4CCC(=O)NC4=O)nn3)cc2)C[C@H](C)O1 (stereo partly drawn) [compound 38, 3-{4-[4-(4-{[(2S,6R)-2,6-dimethylmorpholino]methyl}benzyloxy)thiophen-3-yl]-1H-1,2,3-triazol-1-yl}piperidine-2,6-dione] | 23% | 7% | 89%
2 | O=C1CCC(n2cc(-c3cscc3OCc3cccc(CN4CCOCC4)c3)nn2)C(=O)N1 (stereo not drawn) [compound 39, 3-(4-{4-[3-(morpholinomethyl)benzyloxy]thiophen-3-yl}-1H-1,2,3-triazol-1-yl)piperidine-2,6-dione] | 36% | 30% | 81%
3 | O=C1CCC(n2cc(-c3cscc3OCc3ccccc3CN3CCOCC3)nn2)C(=O)N1 (stereo not drawn) [compound 40, 3-(4-{4-[2-(morpholinomethyl)benzyloxy]thiophen-3-yl}-1H-1,2,3-triazol-1-yl)piperidine-2,6-dione] | 41% | 46% | 86%
4 | Cl.O=C1CCC(n2cc(-c3cscc3OCc3ccc(CN4CCCC4)cc3)nn2)C(=O)N1 (stereo not drawn) [compound 41, 3-(4-{4-[4-(pyrrolidin-1-ylmethyl)benzyloxy]thiophen-3-yl}-1H-1,2,3-triazol-1-yl)piperidine-2,6-dione hydrochloride] | 26% | 24% | 93%
5 | Cl.O=C1CCC(n2cc(-c3cscc3OCc3ccc(CN4CCCCC4)cc3)nn2)C(=O)N1 (stereo not drawn) [compound 42, 3-(4-{4-[4-(piperidin-1-ylmethyl)benzyloxy]thiophen-3-yl}-1H-1,2,3-triazol-1-yl)piperidine-2,6-dione hydrochloride] | 26% | 17% | 96%
6 | O=C1CCC(n2cc(-c3cscc3OCc3ccc(Cl)cc3)nn2)C(=O)N1 (stereo not drawn) [compound 43, 3-{4-[4-(4-chlorobenzyloxy)thiophen-3-yl]-1H-1,2,3-triazol-1-yl}piperidine-2,6-dione] | 42% | 36% | 87%
7 | CC(Oc1cscc1-c1cn(C2CCC(=O)NC2=O)nn1)c1ccccc1 (stereo not drawn) [compound 44, 3-{4-[4-(1-phenylethoxy)thiophen-3-yl]-1H-1,2,3-triazol-1-yl}piperidine-2,6-dione] | 40% | 41% | 79%
8 | Cl.O=C1CCC(n2cc(-c3cscc3OCc3ccc(CCN4CCOCC4)cc3)nn2)C(=O)N1 (stereo not drawn) [compound 45, 3-(4-{4-[4-(2-morpholinoethyl)benzyloxy]thiophen-3-yl}-1H-1,2,3-triazol-1-yl)piperidine-2,6-dione hydrochloride] | 39% | 40% | 76%
9 | CN(C)Cc1ccc(COc2cscc2-c2cn(C3CCC(=O)NC3=O)nn2)cc1.Cl (stereo not drawn) [compound 46, 3-[4-(4-{4-[(dimethylamino)methyl]benzyloxy}thiophen-3-yl)-1H-1,2,3-triazol-1-yl]piperidine-2,6-dione hydrochloride] | 35% | 29% | 80%
10 | O=C1CCC(n2cc(-c3cscc3OCc3cc4ccccc4s3)nn2)C(=O)N1 (stereo not drawn) [compound 47, 3-{4-[4-(benzo[b]thiophen-2-ylmethoxy)thiophen-3-yl]-1H-1,2,3-triazol-1-yl}piperidine-2,6-dione] | 56% | 87% | 63%
11 | O=C1CCC(n2nnc(-c3ccsc3)c2Br)C(=O)N1 (stereo not drawn) [compound 48, 3-[5-bromo-4-(thiophen-3-yl)-1H-1,2,3-triazol-1-yl]piperidine-2,6-dione] | 95% | 80% | 51%
12 | COc1cscc1-c1nnn(C2CCC(=O)NC2=O)c1I (stereo not drawn) [compound 49, 3-[5-iodo-4-(4-methoxythiophen-3-yl)-1H-1,2,3-triazol-1-yl]piperidine-2,6-dione] | 56% | 42% | 79%
